Target: recombinant HINT1 (hHint1) (Homo sapiens, UniProt P49773)
Experiment: HINT1 enzyme activity assay (TrpA hydrolysis, fluorescence)
Type: biochemical
Details: hHint1 0.002 µM, TrpA 0.5 µM, 25 °C
Text: While the biologically relevant substrates of HINT1 have not been clearly elucidated, the protein has been implicated in opioid receptor signaling, − regulation of the melanoma-associated transcription factor MITF, , and DNA damage repair. These functions position HINT1 as a potential pharmacological target for treating conditions such as opioid resistance or melanoma. The only reported HINT1-targeting pharmacophores are nucleoside-based nonhydrolyzable substrate analogs, such as the carbamate TrpGC (Figure a). , We evaluated the inhibitory potential of KV-24 and KV-30 in enzyme activity assays using recombinant HINT1. […] This discrepancy could be attributed to reduced affinity for the recombinant enzyme due to the absence of post-translational modifications (PTMs), cofactors, or interaction partners that enhance drug binding. Alternatively, it might result from substrate dilution in the lysate, whereas high substrate concentrations in the enzyme activity assay require the inhibitor to compete more effectively.
Mouse brain proteomics – LC-MS/MS. Proteome analysis of brain mouse tissue samples was performed on a micro-flow LC timsTOF HT setup described in detail in REF14. Liquid chromatography in micro-flow mode was performed on a Vanquish Neo UHPLC System (Thermo Fisher Scientific) at a flow rate of 50 µL/min. […] 10 µg of peptide mix was injected and analyzed using a 58 min gradient starting at 1% B up to 45% B (1 h method). […]
Mouse proteomics data analysis. The data files were analyzed with DIA-NN 1.8.1. […] The resulting protein group tables were further analyzed by Perseus 1.6.2.2. […]
CME of transferrin and confocal microscopy analyses.For transferrin uptake experiments HeLa cells were seeded on Matrigel-coated coverslips, and incubated with 0.1 % DMSO, or with 100 µM dynasore, 20 µM KV50, 2 µM KV65, or 2 µM KV79 in media containing 10% FCS at 37°C for 20 h. […] All inhibitor treatments were performed in duplicate, to enable quantification of surface levels of transferrin receptors, and to assess the capability of transferrin receptor endocytosis. […]

Chain of recombinant HINT1 (hHint1) (P49773 whole entry): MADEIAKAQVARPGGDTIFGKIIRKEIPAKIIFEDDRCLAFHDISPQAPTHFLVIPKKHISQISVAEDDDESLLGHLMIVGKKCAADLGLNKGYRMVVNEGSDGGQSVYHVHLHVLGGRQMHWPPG

| IC50 | SMILES |
| --- | --- |
| 12.3 µM | O=C(NO)c1ccc(-c2nc3ccccc3n3cccc23)cc1 [KV-24] |
| 12.6 µM | O=C(NO)c1ccc(-c2nc3ccccc3c3ccccc23)cc1 [KV-30] |

Source: publication PMC12186257, “Serendipitous and Systematic Chemoproteomic Discovery of MBLAC2, HINT1, and NME1‑4 Inhibitors from Histone Deacetylase-Targeting Pharmacophores” (ACS Chemical Biology, 2025)
